Patent US6423342B1, “Process for the preparation of a solid pharmaceutical dosage form” (R. P. Scherer Corporation, priority 1995, dated 2002)
Structures can show the parent of a compound that is named as a salt.

Key:
Assay type in all cases: physicochemical
[1] = Effect of pH modification (citric acid level) on stability of selegiline hydrochloride fast-dispersing dosage forms stored at 40° C./80% relative humidity; design: unit not given beside the values
Description: Gelatin (720 g) and mannitol (540 g) were dispersed in a portion of purified water (15.73 kg) by mixing thoroughly in the bowl of a vacuum mixer. The remaining water (1.5 litres) was added under vacuum while mixing using an anchor stirrer. The mix was then heated to 40° C.±2° C. and homogenized for ten minutes. The mix was cooled down to room temperature. When cooled, a 4500 g portion of the mix was removed into a stainless steel vessel and glycine (360 g), aspartame (90 g), grapefruit flavor (54 g), Opatint yellow (54 g) and citric acid (90 g) were then added sequentially to this portion while homogenizing using a bench top homogenizer. The remainder of the mix was transferred into a second stainless steel vessel. Selegiline hydrochloride (360 g) was then added to the mix in the second vessel and the mix homogenized for ten minutes using a bench top mixer to dissolve the drug. Once dispersion of the coloring agent was complete, the portion of the mix removed to the first vessel was returned to the mixer bowl together with the homogenized mix from the second vessel. The combined mixes were then mixed for at least 20 minutes. The bulk dispersion was then homogenized to ensure that mixing was complete.
(§1) 250 mg of the selegiline hydrochloride 2.0% dispersion formed in (a) above was dosed into each one of a series of pre-formed blister pockets having a pocket diameter of 12-mm. The blister laminate comprised 200 μm PVC/30 μm PE/PVDC 90 g per square metre. The product was frozen immediately in a liquid nitrogen freeze tunnel. The frozen product was then stored below −20° C. for a minimum of 24 hours prior to freeze-drying in a freeze drier using a drying temperature of +20° C. and a chamber pressure of 0.5 mbar. The freeze-dried units were then inspected for the presence of critical defects and the remainder of the batch sealed with lidding foil consisting of a paper/foil laminate (20 μm aluminium). Each blister was then coded with a batch number and over-wrapped in a preformed sachet by placing the blister in the sachet and sealing the open end of the sachet completely. Each sachet was then labeled with the product name, batch number, date of manufacture and suppliers name.
A series of dosage forms were manufactured as described in Example 1 but the quantity of citric acid used was varied. The dosage forms were then stored at 40° C./80% relative humidity for up to 7 weeks and the quantity of selegiline hydrochloride in these dosage forms was assayed at regular intervals.

[2] = Effect of storage in frozen state prior to drying on selegiline HCl assay of fast-dispersing dosage forms
Description: as §1
Two batches of selegiline fast-dispersing dosage forms manufactured as described in Example I were stored at different temperatures in the frozen state prior to drying.

[3] = Solution pH of the dispersion at varied citric acid concentration
[4] = Physical properties of the dosage form at varied citric acid level; settings: citric acid levels higher than 0.5%; causing, for instance, cracking and base melting
From the text: It can be seen that a minimum level of 0.5% citric acid is required to inhibit this loss of selegiline.

Structure (SMILES): C#CCN(C)C(C)Cc1ccccc1 (single isomer, unassigned; (-)) [selegiline hydrochloride, (−)-N,α-dimethyl-N-2-propynylphenethylamine]
- quantity of selegiline hydrochloride in dosage form ([1]; citric acid 0 % w/w, solution pH 5.38, 1 week at 40° C./80% relative humidity): 3.86
- quantity of selegiline hydrochloride in dosage form ([1]; citric acid 0 % w/w, solution pH 5.38, 2 week at 40° C./80% relative humidity): 3.31
- quantity of selegiline hydrochloride in dosage form ([1]; citric acid 0 % w/w, solution pH 5.38, 4 week at 40° C./80% relative humidity): 3.32
- quantity of selegiline hydrochloride in dosage form ([1]; citric acid 0 % w/w, solution pH 5.38, Time = 0): 4.79
- quantity of selegiline hydrochloride in dosage form ([1]; citric acid 0.25 % w/w, solution pH 4.21, 1 week at 40° C./80% relative humidity): 4.70
- quantity of selegiline hydrochloride in dosage form ([1]; citric acid 0.25 % w/w, solution pH 4.21, 2 week at 40° C./80% relative humidity): 4.67
- quantity of selegiline hydrochloride in dosage form ([1]; citric acid 0.25 % w/w, solution pH 4.21, 4 week at 40° C./80% relative humidity): 4.74
- quantity of selegiline hydrochloride in dosage form ([1]; citric acid 0.25 % w/w, solution pH 4.21, 7 week at 40° C./80% relative humidity): 4.65
- quantity of selegiline hydrochloride in dosage form ([1]; citric acid 0.25 % w/w, solution pH 4.21, Time = 0): 4.95
- quantity of selegiline hydrochloride in dosage form ([1]; citric acid 0.50 % w/w, solution pH 3.82, 1 week at 40° C./80% relative humidity): 4.98
- quantity of selegiline hydrochloride in dosage form ([1]; citric acid 0.50 % w/w, solution pH 3.82, 2 week at 40° C./80% relative humidity): 4.98
- quantity of selegiline hydrochloride in dosage form ([1]; citric acid 0.50 % w/w, solution pH 3.82, 4 week at 40° C./80% relative humidity): 4.98
- quantity of selegiline hydrochloride in dosage form ([1]; citric acid 0.50 % w/w, solution pH 3.82, 7 week at 40° C./80% relative humidity): 4.96
- quantity of selegiline hydrochloride in dosage form ([1]; citric acid 0.50 % w/w, solution pH 3.82, Time = 0): 5.05
- quantity of selegiline hydrochloride in dosage form ([1]; citric acid 1.0 % w/w, solution pH 3.45, 1 week at 40° C./80% relative humidity): 5.03
- quantity of selegiline hydrochloride in dosage form ([1]; citric acid 1.0 % w/w, solution pH 3.45, 2 week at 40° C./80% relative humidity): 5.04
- quantity of selegiline hydrochloride in dosage form ([1]; citric acid 1.0 % w/w, solution pH 3.45, 4 week at 40° C./80% relative humidity): 5.05
- quantity of selegiline hydrochloride in dosage form ([1]; citric acid 1.0 % w/w, solution pH 3.45, 7 week at 40° C./80% relative humidity): 5.00
- quantity of selegiline hydrochloride in dosage form ([1]; citric acid 1.0 % w/w, solution pH 3.45, Time = 0): 5.07
- quantity of selegiline hydrochloride in dosage form ([1]; citric acid 2.0 % w/w, solution pH 3.11, 1 week at 40° C./80% relative humidity): 4.99
- quantity of selegiline hydrochloride in dosage form ([1]; citric acid 2.0 % w/w, solution pH 3.11, 2 week at 40° C./80% relative humidity): 5.01
- quantity of selegiline hydrochloride in dosage form ([1]; citric acid 2.0 % w/w, solution pH 3.11, 4 week at 40° C./80% relative humidity): 5.02
- quantity of selegiline hydrochloride in dosage form ([1]; citric acid 2.0 % w/w, solution pH 3.11, 7 week at 40° C./80% relative humidity): 4.96
- quantity of selegiline hydrochloride in dosage form ([1]; citric acid 2.0 % w/w, solution pH 3.11, Time = 0): 5.04
- Assay Selegiline HCI ([2]; Frozen storage temperature −20 ° C. prior to drying, 2 week): 4.97 mg
- Assay Selegiline HCI ([2]; Frozen storage temperature −20 ° C. prior to drying, 4 week): 4.98 mg
- Assay Selegiline HCI ([2]; Frozen storage temperature −20 ° C. prior to drying, Time = 0): 5.01 mg
- Assay Selegiline HCI ([2]; Frozen storage temperature −25 ° C. prior to drying, 1 week): 4.85 mg
- Assay Selegiline HCI ([2]; Frozen storage temperature −25 ° C. prior to drying, 2 week): 4.79 mg
- Assay Selegiline HCI ([2]; Frozen storage temperature −25 ° C. prior to drying, 4 week): 4.74 mg
- Assay Selegiline HCI ([2]; Frozen storage temperature −25 ° C. prior to drying, Time = 0): 4.87 mg
- Solution pH ([3]; Conc. of citric acid 0 % w/w): 5.38
- Solution pH ([3]; Conc. of citric acid 0.25 % w/w): 4.21
- Solution pH ([3]; Conc. of citric acid 0.50 % w/w): 3.82
- Solution pH ([3]; Conc. of citric acid 1.0 % w/w): 3.45
- Solution pH ([3]; Conc. of citric acid 2.0 % w/w): 3.11
- effect on the physical properties of the dosage form [4]: deleterious effect
